Reference: publication PMC9082781 (ACS infectious diseases, 2021)
≈ marks a conversion by molar mass, not a printed value. Residues, ends and D or L forms follow the SMILES beside them. *: point of attachment. Myristoyl = CCCCCCCCCCCCCC(=O)*; Lauroyl = CCCCCCCCCCCC(=O)*; Decanoyl = CCCCCCCCCC(=O)*; Octanoyl = CCCCCCCC(=O)*; Hexanoyl = CCCCCC(=O)*

Test system: Klebsiella pneumonia ATCC 13883
Assay type: cell-based, Klebsiella pneumoniae

SMILES	MIC KP [µM]
CCCCCCCCCCCC(=O)N[C@@H](CCCCN)C(=O)N[C@@H](CCCNC(=N)N)C(=O)N[C@H](C(=O)N[C@@H](Cc1c[nH]c2ccccc12)C(=O)N[C@@H](CCC(N)=O)C(=O)N[C@@H](CCCNC(=N)N)C(=O)N[C@H](C(=O)N[C@@H](CCCCN)C(=O)N[C@@H](CC(=O)O)C(=O)N[C@@H](Cc1ccccc1)C(=O)N[C@@H](CC(C)C)C(=O)N[C@@H](CCCNC(=N)N)C(N)=O)[C@@H](C)CC)[C@@H](C)CC [Peptide C12-KR12] (Lauroyl-KRIWQRIKDFLR-NH2)	12.5 (≈ 23 µg/mL)
CCCCCC(=O)N[C@@H](CCCCN)C(=O)N[C@@H](CCCNC(=N)N)C(=O)N[C@H](C(=O)N[C@@H](Cc1c[nH]c2ccccc12)C(=O)N[C@@H](CCC(N)=O)C(=O)N[C@@H](CCCNC(=N)N)C(=O)N[C@H](C(=O)N[C@@H](CCCCN)C(N)=O)[C@@H](C)CC)[C@@H](C)CC [Peptide C6-KR8] (Hexanoyl-KRIWQRIK-NH2)	>50
CCCCCCCC(=O)N[C@@H](CCCCN)C(=O)N[C@@H](CCCNC(=N)N)C(=O)N[C@H](C(=O)N[C@@H](Cc1c[nH]c2ccccc12)C(=O)N[C@@H](CCC(N)=O)C(=O)N[C@@H](CCCNC(=N)N)C(N)=O)[C@@H](C)CC [Peptide C8-KR6] (Octanoyl-KRIWQR-NH2; C-terminus assumed)	>50
CCCCCCCCCCCCCC(=O)N[C@@H](CCCCN)C(=O)N[C@@H](CCCNC(=N)N)C(=O)N[C@H](C(=O)N[C@@H](Cc1c[nH]c2ccccc12)C(=O)N[C@@H](CCC(N)=O)C(=O)N[C@@H](CCCNC(=N)N)C(N)=O)[C@@H](C)CC [Peptide C14-KR6] (Myristoyl-KRIWQR-NH2; C-terminus assumed)	>50
CCCCCC(=O)N[C@@H](CCCCN)C(=O)N[C@@H](CCCNC(=N)N)C(=O)N[C@H](C(=O)N[C@@H](Cc1c[nH]c2ccccc12)C(N)=O)[C@@H](C)CC [Peptide C6-KR4] (Hexanoyl-KRIW-NH2; C-terminus assumed)	>50
CCCCCC(=O)N[C@@H](CCCCN)C(=O)N[C@@H](CCCNC(=N)N)C(=O)N[C@H](C(=O)N[C@@H](Cc1c[nH]c2ccccc12)C(=O)N[C@@H](CCC(N)=O)C(=O)N[C@@H](CCCNC(=N)N)C(=O)N[C@H](C(=O)N[C@@H](CCCCN)C(=O)N[C@@H](CC(=O)O)C(=O)N[C@@H](Cc1ccccc1)C(N)=O)[C@@H](C)CC)[C@@H](C)CC [Peptide C6-KR10] (Hexanoyl-KRIWQRIKDF-NH2)	>50
CCCCCCCCCCCC(=O)N[C@@H](CCCCN)C(=O)N[C@@H](CCCNC(=N)N)C(=O)N[C@H](C(=O)N[C@@H](Cc1c[nH]c2ccccc12)C(=O)N[C@@H](CCC(N)=O)C(=O)N[C@@H](CCCNC(=N)N)C(N)=O)[C@@H](C)CC [Peptide C12-KR6] (Lauroyl-KRIWQR-NH2; C-terminus assumed)	>50
CCCCCCCC(=O)N[C@@H](CCCCN)C(=O)N[C@@H](CCCNC(=N)N)C(=O)N[C@H](C(=O)N[C@@H](Cc1c[nH]c2ccccc12)C(=O)N[C@@H](CCC(N)=O)C(=O)N[C@@H](CCCNC(=N)N)C(=O)N[C@H](C(=O)N[C@@H](CCCCN)C(N)=O)[C@@H](C)CC)[C@@H](C)CC [Peptide C8-KR8] (Octanoyl-KRIWQRIK-NH2)	>50
CCCCCC(=O)N[C@@H](CCCCN)C(=O)N[C@@H](CCCNC(=N)N)C(=O)N[C@H](C(=O)N[C@@H](Cc1c[nH]c2ccccc12)C(=O)N[C@@H](CCC(N)=O)C(=O)N[C@@H](CCCNC(=N)N)C(N)=O)[C@@H](C)CC [Peptide C6-KR6] (Hexanoyl-KRIWQR-NH2; C-terminus assumed)	>50
CCCCCCCCCCCC(=O)N[C@@H](CCCCN)C(=O)N[C@@H](CCCNC(=N)N)C(=O)N[C@H](C(=O)N[C@@H](Cc1c[nH]c2ccccc12)C(=O)N[C@@H](CCC(N)=O)C(=O)N[C@@H](CCCNC(=N)N)C(=O)N[C@H](C(=O)N[C@@H](CCCCN)C(N)=O)[C@@H](C)CC)[C@@H](C)CC [Peptide C12-KR8] (Lauroyl-KRIWQRIK-NH2)	>50
CCCCCCCCCC(=O)N[C@@H](CCCCN)C(=O)N[C@@H](CCCNC(=N)N)C(=O)N[C@H](C(=O)N[C@@H](Cc1c[nH]c2ccccc12)C(=O)N[C@@H](CCC(N)=O)C(=O)N[C@@H](CCCNC(=N)N)C(=O)N[C@H](C(=O)N[C@@H](CCCCN)C(=O)N[C@@H](CC(=O)O)C(=O)N[C@@H](Cc1ccccc1)C(=O)N[C@@H](CC(C)C)C(=O)N[C@@H](CCCNC(=N)N)C(N)=O)[C@@H](C)CC)[C@@H](C)CC [Peptide C10-KR12] (Decanoyl-KRIWQRIKDFLR-NH2)	6.2 to 12.5
CCCCCCCCCC(=O)N[C@@H](CCCCN)C(=O)N[C@@H](CCCNC(=N)N)C(=O)N[C@H](C(=O)N[C@@H](Cc1c[nH]c2ccccc12)C(=O)N[C@@H](CCC(N)=O)C(=O)N[C@@H](CCCNC(=N)N)C(N)=O)[C@@H](C)CC [Peptide C10-KR6] (Decanoyl-KRIWQR-NH2; C-terminus assumed)	>50
CCCCCCCCCCCCCC(=O)N[C@@H](CCCCN)C(=O)N[C@@H](CCCNC(=N)N)C(=O)N[C@H](C(=O)N[C@@H](Cc1c[nH]c2ccccc12)C(N)=O)[C@@H](C)CC [Peptide C14-KR4] (Myristoyl-KRIW-NH2; C-terminus assumed)	12.5 (≈ 10.1 µg/mL)
CCCCCCCCCCCC(=O)N[C@@H](CCCCN)C(=O)N[C@@H](CCCNC(=N)N)C(=O)N[C@H](C(=O)N[C@@H](Cc1c[nH]c2ccccc12)C(N)=O)[C@@H](C)CC [Peptide C12-KR4] (Lauroyl-KRIW-NH2; C-terminus assumed)	>50
CCCCCCCC(=O)N[C@@H](CCCCN)C(=O)N[C@@H](CCCNC(=N)N)C(=O)N[C@H](C(=O)N[C@@H](Cc1c[nH]c2ccccc12)C(=O)N[C@@H](CCC(N)=O)C(=O)N[C@@H](CCCNC(=N)N)C(=O)N[C@H](C(=O)N[C@@H](CCCCN)C(=O)N[C@@H](CC(=O)O)C(=O)N[C@@H](Cc1ccccc1)C(=O)N[C@@H](CC(C)C)C(=O)N[C@@H](CCCNC(=N)N)C(N)=O)[C@@H](C)CC)[C@@H](C)CC [Peptide C8-KR12] (Octanoyl-KRIWQRIKDFLR-NH2)	<6.2
CCCCCCCCCCCCCC(=O)N[C@@H](CCCCN)C(=O)N[C@@H](CCCNC(=N)N)C(=O)N[C@H](C(=O)N[C@@H](Cc1c[nH]c2ccccc12)C(=O)N[C@@H](CCC(N)=O)C(=O)N[C@@H](CCCNC(=N)N)C(=O)N[C@H](C(=O)N[C@@H](CCCCN)C(=O)N[C@@H](CC(=O)O)C(=O)N[C@@H](Cc1ccccc1)C(N)=O)[C@@H](C)CC)[C@@H](C)CC [Peptide C14-KR10] (Myristoyl-KRIWQRIKDF-NH2)	6.2 (≈ 9.91 µg/mL)
CCCCCC(=O)N[C@@H](CCCCN)C(=O)N[C@@H](CCCNC(=N)N)C(=O)N[C@H](C(=O)N[C@@H](Cc1c[nH]c2ccccc12)C(=O)N[C@@H](CCC(N)=O)C(=O)N[C@@H](CCCNC(=N)N)C(=O)N[C@H](C(=O)N[C@@H](CCCCN)C(=O)N[C@@H](CC(=O)O)C(=O)N[C@@H](Cc1ccccc1)C(=O)N[C@@H](CC(C)C)C(=O)N[C@@H](CCCNC(=N)N)C(N)=O)[C@@H](C)CC)[C@@H](C)CC [Peptide C6-KR12] (Hexanoyl-KRIWQRIKDFLR-NH2)	6.2 (≈ 10.9 µg/mL)
CCCCCCCCCC(=O)N[C@@H](CCCCN)C(=O)N[C@@H](CCCNC(=N)N)C(=O)N[C@H](C(=O)N[C@@H](Cc1c[nH]c2ccccc12)C(N)=O)[C@@H](C)CC [Peptide C10-KR4] (Decanoyl-KRIW-NH2; C-terminus assumed)	>50
